Data: ChEMBL document CHEMBL5696442, “Discovery of type II inhibitors of TGFβ-activated kinase 1 (TAK1) and mitogen-activated protein kinase kinase kinase kinase 2 (MAP4K2)” (J Med Chem, 2015)
Calls of active or inactive are those of the source. The rule behind the calls is not given here.

Assays:
[1] = biological target: Serine/threonine-protein kinase tousled-like 2 (Homo sapiens) (UniProt Q86UE8); assay: Inhibition of TLK2 (unknown origin) at 1 uM by Ambit Kinomescan binding assay relative to control
[2] = biological target: Serine/threonine-protein kinase 17A (Homo sapiens) (UniProt Q9UEE5); assay: Inhibition of DRAK1 (unknown origin) at 1 uM by Ambit Kinomescan binding assay relative to control; values are per cent of control
[3] = biological target: Serine/threonine-protein kinase PLK1 (Homo sapiens) (UniProt P53350); assay: Inhibition of PLK1 Lys2 labeling site in human A-375 cells at 0.05 uM by KiNativ Profiling analysis relative to control; type: cell-based
[4] = biological target: T1, Mitogen-activated protein kinase kinase kinase 2 (Homo sapiens) (UniProt Q9Y2U5); assay: Inhibition of MAP3K2 Lys2 labeling site in human A-375 cells at 0.5 uM by KiNativ Profiling analysis relative to control; type: cell-based
T1 sequence (whole entry): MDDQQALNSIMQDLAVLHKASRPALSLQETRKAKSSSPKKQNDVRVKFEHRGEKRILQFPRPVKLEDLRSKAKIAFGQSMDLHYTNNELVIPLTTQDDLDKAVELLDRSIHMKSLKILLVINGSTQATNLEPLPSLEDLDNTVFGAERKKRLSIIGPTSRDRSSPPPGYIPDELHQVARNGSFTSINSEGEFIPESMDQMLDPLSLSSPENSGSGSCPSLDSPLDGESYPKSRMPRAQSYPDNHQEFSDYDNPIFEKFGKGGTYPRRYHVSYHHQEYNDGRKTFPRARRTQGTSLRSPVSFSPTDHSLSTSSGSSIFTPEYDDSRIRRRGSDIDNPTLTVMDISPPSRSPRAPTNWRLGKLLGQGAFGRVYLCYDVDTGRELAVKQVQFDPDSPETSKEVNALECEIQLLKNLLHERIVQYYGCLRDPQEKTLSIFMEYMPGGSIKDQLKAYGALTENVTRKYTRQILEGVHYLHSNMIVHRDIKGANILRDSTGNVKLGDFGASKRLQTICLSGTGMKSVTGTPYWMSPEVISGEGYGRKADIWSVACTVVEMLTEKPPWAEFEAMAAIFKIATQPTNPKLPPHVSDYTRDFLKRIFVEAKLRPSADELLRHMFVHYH

[5] = biological target: T2, Serine/threonine-protein kinase STK11 (Homo sapiens) (UniProt Q15831); assay: Inhibition of LKB1 K2 labeling site in human Huh-7 cells at 1 uM by KiNativ Profiling analysis relative to control; type: cell-based
T2 sequence (whole entry): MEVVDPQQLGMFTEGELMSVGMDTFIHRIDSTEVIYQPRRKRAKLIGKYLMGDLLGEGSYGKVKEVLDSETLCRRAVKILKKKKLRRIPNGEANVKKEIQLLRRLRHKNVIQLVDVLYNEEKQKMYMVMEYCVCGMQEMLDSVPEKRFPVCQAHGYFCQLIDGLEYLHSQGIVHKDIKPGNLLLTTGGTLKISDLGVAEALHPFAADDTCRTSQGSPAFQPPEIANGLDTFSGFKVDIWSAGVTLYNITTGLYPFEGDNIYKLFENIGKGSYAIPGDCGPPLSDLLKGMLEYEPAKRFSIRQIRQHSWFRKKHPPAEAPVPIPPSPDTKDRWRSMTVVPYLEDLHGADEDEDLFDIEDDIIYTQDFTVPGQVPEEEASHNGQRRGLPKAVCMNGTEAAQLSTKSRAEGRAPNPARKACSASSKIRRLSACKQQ

[6] = biological target: Calcium/calmodulin-dependent protein kinase type II subunit beta (Homo sapiens) (UniProt Q13554); assay: Inhibition of CAMK2B (unknown origin) at 10 uM by Ambit Kinomescan binding assay
[7] = biological target: Serine/threonine-protein kinase 25 (Homo sapiens) (UniProt O00506); assay: Inhibition of YSK1 ATP labeling site in human Huh-7 cells at 10 uM by KiNativ Profiling analysis relative to control; type: cell-based
[8] = biological target: RPS6KA1/RPS6KA2/RPS6KA3 (Homo sapiens) (UniProt P51812+Q15349+Q15418); assay: Inhibition of RSK1/2/3 Domain 1 K2 labeling site harbouring DLKPENILLDEEGHIKLTDFGLSK in human Huh-7 cells at 10 uM by KiNativ Profiling analysis relative to control; type: cell-based
[9] = biological target: Ribosomal protein S6 kinase delta-1 (Homo sapiens) (UniProt Q96S38); assay: Inhibition of RPS6KC1 domain 1 ATP labeling site in human Huh-7 cells at 10 uM by KiNativ Profiling analysis relative to control; type: cell-based
[10] = biological target: Mitogen-activated protein kinase 7 (Homo sapiens) (UniProt Q13164); assay: Inhibition of Erk5 K2 labeling site in human Huh-7 cells at 1 uM by KiNativ Profiling analysis relative to control; type: cell-based
[11] = biological target: Serine/threonine-protein kinase 16 (Homo sapiens) (UniProt O75716); assay: Inhibition of MPSK1 K2 labeling site in human Huh-7 cells at 1 uM by KiNativ Profiling analysis relative to control; type: cell-based
[12] = biological target: Serine/threonine-protein kinase 10 (Homo sapiens) (UniProt O94804); assay: Inhibition of LOK Lys1 labeling site in human A-375 cells at 5 uM by KiNativ Profiling analysis relative to control; type: cell-based
[13] = biological target: MAP/microtubule affinity-regulating kinase 3 (Homo sapiens) (UniProt P27448); assay: Inhibition of MARK3 Lys2 labeling site in human Huh-7 cells at 1 uM by KiNativ Profiling analysis relative to control; type: cell-based
[14] = biological target: Serine/threonine-protein kinase WNK4 (Homo sapiens) (UniProt Q96J92); assay: Inhibition of Wnk4 ACT labeling site in human Huh-7 cells at 1 uM by KiNativ Profiling analysis relative to control; type: cell-based
[15] = biological target: Serine/threonine-protein kinase Nek7 (Homo sapiens) (UniProt Q8TDX7); assay: Inhibition of NEK7 Lys2 labeling site harbouring VMHRDIKPANVFITATGVVK in human Huh-7 cell lysate at 1 uM by KiNativ Profiling analysis relative to control; type: subcellular
[16] = biological target: Calcium/calmodulin-dependent protein kinase type II subunit beta (Homo sapiens) (UniProt Q13554); assay: Inhibition of CaMK2b Lys2 labeling site in human Huh-7 cell lysate at 1 uM by KiNativ Profiling analysis relative to control; type: subcellular
[17] = Inhibition of KHS1 Lys2 labeling site harbouring DIKGANILLTDHGDVK in human Huh-7 cell lysate at 1 uM by KiNativ Profiling analysis relative to control; details: condition cancer
[18] = biological target: Serine/threonine-protein kinase 38 (Homo sapiens) (UniProt Q15208); assay: Inhibition of NDR1 Lys1 labeling site in human Huh-7 cells at 1 uM by KiNativ Profiling analysis relative to control; type: cell-based
[19] = biological target: Epidermal growth factor receptor (Homo sapiens) (UniProt P00533); assay: Inhibition of EGFR Lys1 labeling site harbouring GLWIPEGEKVKIPVAIKELR in human Huh-7 cell lysate at 1 uM by KiNativ Profiling analysis relative to control; type: subcellular
[20] = biological target: Phosphatidylinositol 4-kinase type 2-beta (Homo sapiens) (UniProt Q8TCG2); assay: Inhibition of PI4K2B ATP labeling site in human Huh-7 cell lysate at 1 uM by KiNativ Profiling analysis relative to control; type: subcellular

Sequence of Calcium/calmodulin-dependent protein kinase type II subunit beta (Homo sapiens) (Q13554 whole entry): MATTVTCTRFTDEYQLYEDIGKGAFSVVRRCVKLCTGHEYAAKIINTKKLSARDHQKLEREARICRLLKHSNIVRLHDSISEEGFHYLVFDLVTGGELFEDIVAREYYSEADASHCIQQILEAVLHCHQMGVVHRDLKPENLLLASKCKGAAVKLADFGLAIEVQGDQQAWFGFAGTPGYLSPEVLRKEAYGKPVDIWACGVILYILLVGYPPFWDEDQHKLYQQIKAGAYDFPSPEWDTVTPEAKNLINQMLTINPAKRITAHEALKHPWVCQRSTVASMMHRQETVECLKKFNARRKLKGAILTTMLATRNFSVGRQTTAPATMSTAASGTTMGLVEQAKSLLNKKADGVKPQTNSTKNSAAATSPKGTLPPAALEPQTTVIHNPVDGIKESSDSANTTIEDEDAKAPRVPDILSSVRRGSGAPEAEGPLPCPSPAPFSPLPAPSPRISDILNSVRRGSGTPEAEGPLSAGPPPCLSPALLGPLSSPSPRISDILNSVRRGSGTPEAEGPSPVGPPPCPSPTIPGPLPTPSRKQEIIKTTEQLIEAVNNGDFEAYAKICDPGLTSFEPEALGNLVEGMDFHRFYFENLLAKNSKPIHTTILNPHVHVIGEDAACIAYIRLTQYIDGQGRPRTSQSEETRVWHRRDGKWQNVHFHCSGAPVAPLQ
Sequence of Serine/threonine-protein kinase 17A (Homo sapiens) (Q9UEE5 whole entry): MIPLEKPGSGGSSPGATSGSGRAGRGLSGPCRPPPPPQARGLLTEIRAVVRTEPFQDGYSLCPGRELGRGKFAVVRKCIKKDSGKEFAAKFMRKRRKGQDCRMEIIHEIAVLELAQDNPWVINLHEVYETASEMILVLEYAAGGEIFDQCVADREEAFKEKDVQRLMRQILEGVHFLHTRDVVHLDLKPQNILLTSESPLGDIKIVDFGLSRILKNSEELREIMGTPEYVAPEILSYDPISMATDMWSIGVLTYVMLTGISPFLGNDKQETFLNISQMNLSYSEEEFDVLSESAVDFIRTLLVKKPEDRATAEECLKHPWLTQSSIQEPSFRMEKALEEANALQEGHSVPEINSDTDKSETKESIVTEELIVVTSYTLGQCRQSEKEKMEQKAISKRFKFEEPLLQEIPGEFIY
Sequence of MAP/microtubule affinity-regulating kinase 3 (Homo sapiens) (P27448 whole entry, looked up): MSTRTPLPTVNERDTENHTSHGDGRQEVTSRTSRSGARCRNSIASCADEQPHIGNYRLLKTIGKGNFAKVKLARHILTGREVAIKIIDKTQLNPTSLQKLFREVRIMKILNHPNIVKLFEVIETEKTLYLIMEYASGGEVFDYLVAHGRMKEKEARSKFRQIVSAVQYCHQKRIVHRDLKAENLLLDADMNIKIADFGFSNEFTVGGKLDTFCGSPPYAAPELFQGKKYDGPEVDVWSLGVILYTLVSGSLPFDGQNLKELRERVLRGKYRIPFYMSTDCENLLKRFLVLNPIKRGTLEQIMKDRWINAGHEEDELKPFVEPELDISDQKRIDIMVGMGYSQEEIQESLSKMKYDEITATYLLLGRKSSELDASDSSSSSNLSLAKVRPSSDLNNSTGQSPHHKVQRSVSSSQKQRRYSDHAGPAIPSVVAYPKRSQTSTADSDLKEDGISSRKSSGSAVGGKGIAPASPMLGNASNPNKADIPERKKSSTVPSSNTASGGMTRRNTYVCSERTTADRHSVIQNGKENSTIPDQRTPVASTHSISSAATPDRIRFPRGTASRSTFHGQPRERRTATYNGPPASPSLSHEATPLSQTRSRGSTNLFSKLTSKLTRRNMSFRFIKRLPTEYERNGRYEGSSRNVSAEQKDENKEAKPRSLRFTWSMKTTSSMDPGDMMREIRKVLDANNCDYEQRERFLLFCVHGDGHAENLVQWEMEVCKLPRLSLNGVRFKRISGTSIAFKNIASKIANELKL
Sequence of Serine/threonine-protein kinase 16 (Homo sapiens) (O75716 whole entry): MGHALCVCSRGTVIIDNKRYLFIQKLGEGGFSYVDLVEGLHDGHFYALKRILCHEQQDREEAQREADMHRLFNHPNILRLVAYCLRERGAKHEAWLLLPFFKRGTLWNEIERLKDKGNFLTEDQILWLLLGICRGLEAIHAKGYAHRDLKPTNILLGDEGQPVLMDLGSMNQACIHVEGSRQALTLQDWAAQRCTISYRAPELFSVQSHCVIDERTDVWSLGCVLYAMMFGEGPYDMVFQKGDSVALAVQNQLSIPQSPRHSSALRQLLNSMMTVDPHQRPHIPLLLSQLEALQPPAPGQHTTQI
Sequence of Ribosomal protein S6 kinase delta-1 (Homo sapiens) (Q96S38 whole entry, the tested form may be a part): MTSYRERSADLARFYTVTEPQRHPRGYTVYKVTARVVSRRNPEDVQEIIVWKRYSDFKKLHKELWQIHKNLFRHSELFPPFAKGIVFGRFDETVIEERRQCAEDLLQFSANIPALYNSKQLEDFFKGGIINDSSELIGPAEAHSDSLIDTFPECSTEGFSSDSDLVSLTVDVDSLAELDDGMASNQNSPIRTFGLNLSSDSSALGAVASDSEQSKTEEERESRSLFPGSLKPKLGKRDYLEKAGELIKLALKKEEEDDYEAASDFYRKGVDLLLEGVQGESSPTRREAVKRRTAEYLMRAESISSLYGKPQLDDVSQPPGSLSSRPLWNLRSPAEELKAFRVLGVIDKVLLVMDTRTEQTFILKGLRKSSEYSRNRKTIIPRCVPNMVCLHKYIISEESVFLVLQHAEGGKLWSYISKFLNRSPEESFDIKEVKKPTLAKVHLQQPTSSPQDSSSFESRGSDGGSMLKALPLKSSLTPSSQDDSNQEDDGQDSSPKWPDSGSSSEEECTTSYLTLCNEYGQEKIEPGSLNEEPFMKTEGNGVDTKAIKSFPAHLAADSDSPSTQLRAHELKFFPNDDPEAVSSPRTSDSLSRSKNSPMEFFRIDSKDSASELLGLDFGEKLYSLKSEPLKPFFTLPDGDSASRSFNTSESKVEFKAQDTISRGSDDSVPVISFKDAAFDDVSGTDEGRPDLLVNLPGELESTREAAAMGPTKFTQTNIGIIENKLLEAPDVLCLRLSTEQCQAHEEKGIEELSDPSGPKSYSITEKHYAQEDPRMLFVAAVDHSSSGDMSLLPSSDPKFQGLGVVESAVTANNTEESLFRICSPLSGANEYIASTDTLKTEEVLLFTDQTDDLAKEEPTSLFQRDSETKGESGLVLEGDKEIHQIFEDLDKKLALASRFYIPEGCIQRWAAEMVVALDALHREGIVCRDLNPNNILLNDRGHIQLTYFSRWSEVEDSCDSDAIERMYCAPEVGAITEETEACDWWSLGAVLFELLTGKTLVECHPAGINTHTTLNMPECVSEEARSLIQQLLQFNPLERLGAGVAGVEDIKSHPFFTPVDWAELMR
Sequence of Serine/threonine-protein kinase PLK1 (Homo sapiens) (P53350 whole entry): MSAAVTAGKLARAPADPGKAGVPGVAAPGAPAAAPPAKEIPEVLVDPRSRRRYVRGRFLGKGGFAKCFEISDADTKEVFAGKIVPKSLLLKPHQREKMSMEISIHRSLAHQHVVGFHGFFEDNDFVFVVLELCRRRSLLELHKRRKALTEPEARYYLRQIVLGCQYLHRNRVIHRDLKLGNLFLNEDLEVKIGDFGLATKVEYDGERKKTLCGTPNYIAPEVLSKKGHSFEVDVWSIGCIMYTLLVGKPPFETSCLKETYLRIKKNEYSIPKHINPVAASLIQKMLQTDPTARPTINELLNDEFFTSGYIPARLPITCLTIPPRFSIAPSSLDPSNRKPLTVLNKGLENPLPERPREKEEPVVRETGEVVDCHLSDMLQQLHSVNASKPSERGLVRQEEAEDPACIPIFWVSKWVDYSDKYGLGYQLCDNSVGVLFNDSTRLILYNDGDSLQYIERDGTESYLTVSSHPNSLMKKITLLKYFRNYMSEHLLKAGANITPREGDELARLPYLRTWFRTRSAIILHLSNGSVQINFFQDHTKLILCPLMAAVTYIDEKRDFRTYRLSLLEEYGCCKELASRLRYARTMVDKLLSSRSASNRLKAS
Sequence of Serine/threonine-protein kinase 25 (Homo sapiens) (O00506 whole entry, looked up): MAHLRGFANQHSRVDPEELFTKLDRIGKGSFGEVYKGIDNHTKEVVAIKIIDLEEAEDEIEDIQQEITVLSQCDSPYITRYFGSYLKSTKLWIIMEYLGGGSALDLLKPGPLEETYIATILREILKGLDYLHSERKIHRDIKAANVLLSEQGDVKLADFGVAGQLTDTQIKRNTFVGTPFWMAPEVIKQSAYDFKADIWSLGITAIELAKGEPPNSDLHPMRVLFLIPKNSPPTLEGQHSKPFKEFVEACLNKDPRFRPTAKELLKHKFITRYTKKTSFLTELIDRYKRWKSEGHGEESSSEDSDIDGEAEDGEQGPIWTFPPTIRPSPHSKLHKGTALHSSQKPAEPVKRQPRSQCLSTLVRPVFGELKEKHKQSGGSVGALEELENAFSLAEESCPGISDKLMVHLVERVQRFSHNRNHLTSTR
Sequence of Serine/threonine-protein kinase Nek7 (Homo sapiens) (Q8TDX7 whole entry, looked up): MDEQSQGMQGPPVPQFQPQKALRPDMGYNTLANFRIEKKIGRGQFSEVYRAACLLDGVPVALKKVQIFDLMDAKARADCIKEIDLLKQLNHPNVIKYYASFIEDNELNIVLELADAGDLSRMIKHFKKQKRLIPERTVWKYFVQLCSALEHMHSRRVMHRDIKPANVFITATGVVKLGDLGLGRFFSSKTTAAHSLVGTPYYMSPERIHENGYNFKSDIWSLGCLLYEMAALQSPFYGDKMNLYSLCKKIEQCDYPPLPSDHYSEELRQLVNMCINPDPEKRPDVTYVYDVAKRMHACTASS
Sequence of Serine/threonine-protein kinase 38 (Homo sapiens) (Q15208 2-465 limits assumed): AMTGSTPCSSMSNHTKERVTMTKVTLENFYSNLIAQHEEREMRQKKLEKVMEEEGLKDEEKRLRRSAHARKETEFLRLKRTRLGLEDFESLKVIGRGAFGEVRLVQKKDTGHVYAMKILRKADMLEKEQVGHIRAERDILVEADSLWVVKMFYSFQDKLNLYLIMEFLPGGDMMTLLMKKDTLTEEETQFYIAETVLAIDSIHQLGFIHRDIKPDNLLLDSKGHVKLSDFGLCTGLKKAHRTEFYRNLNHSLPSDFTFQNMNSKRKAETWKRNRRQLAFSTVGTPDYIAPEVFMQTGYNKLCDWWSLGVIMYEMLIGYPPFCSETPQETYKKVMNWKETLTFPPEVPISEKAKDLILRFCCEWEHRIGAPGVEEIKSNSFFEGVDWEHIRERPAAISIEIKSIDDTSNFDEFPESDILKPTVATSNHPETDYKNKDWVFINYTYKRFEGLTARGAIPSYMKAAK

Structure (SMILES): CCN1CCN(Cc2ccc(NC(=O)c3ccc(C)c(/C=C/c4cnc5[nH]ccc5c4OC)c3)cc2C(F)(F)F)CC1
- inhibition [1]: 100%
- residual activity [2]: 52%
- inhibition [3]: 1.3%

Structure (SMILES): CCN1CCN(Cc2ccc(NC(=O)c3ccc(C)c(Oc4ccnc5[nH]ccc45)c3)cc2C(F)(F)F)CC1
- inhibition [4]: 2.8%
- inhibition [5]: 5.5%
- inhibition [6]: inactive
- inhibition [7]: 25.3%
- inhibition [8]: -6.5%
- inhibition [9]: 15.4%
- inhibition [10]: 14.6%
- inhibition [11]: 6.7%
- inhibition [12]: 82.3%

Structure (SMILES): CNc1cc(Oc2cc(C(=O)Nc3cc(N4CCN(C)CC4)cc(C(F)(F)F)c3)ccc2C)ncn1
- inhibition [13]: 11.3%
- inhibition [14]: 21.6%
- inhibition [15]: 19.4%
- inhibition [16]: 0.7%
- inhibition at 1 µM [17]: 0.5%
- inhibition [18]: 16.4%
- inhibition [19]: 9.9%
- inhibition [20]: 25%
